# Measured values from patent US20100317593A1, “2,3-DIHYDRO-1H-INDENE COMPOUNDS” (ASTRAZENECA AB, priority 2009, published 2010).
# Molecular target: T1, Glutathione-S-transferase tagged Bir3 domain of cIAP1 (L250-G350) (Homo sapiens, UniProt Q13490)
# T1 construct: The cIAP1 Bir3 domain construct (aa L250-G350) was prepared from a full length cIAP1 clone; made in house; host or cells: Escherichia coli BL21 (DE3), pGEX-6P-1 vector
# Test: Fluorescence polarization assay, cIAP1 Bir3 domain
# Format: binding
# Details: 20 nM cIAP1-Bir3, 2.5 nM AbuRPF-K-5FAM tracer, 20-minute incubation
# Protocol: Materials: The cIAP1 Bir3 domain construct (aa L250-G350) was prepared from a full length cIAP1 clone (NCBI Reference Sequence: NM_001166.3). PCR was used to generate the Bir3 fragment which was inserted into a pGEX-6P-1 vector (GE LifeSciences) as a BamHI/XhoI fragment. Protein was prepared in Escherichia coli BL21 (DE3) grown at 37° C. containing ampicillin to an OD600 of 0.6. Protein expression was induced by 1 mM isopropyl β-D-1-thiogalactopyranoside (IPTG) for 3.75 hours.
# Cells were lysed by sonication in buffer containing 100 mM Tris (pH 7.5), 150 mM NaCl, 5 mm dithiothreitol (DTT), 50 μM zinc acetate (ZnAc), ethylenediamine tetraacetic acid (EDTA) free Complete protease inhibitors (Roche Applied Science), 100 μg/mL lysozyme, and 0.5% Triton-X100. DNAse was added to the mixture after sonication. Proteins were purified from the soluble fraction using Glutathione Sepharose 4B resin (GE Lifesciences) followed by desalting on a PD-10 column (GE Lifesciences). This was followed by purification over an SEC 200 resin (GE Lifesciences). Final storage buffer consisted of 25 mM Tris, pH 7.5, 200 mM NaCl, 5 mM DTT, 50 uM ZnAc, 10% glycerol.
# The fluorescence polarization assay was developed using Glutathione-S-transferase tagged Bir3 domain of cIAP1 (L250-G350). The tracer used was a synthetic peptide conjugated to 5-carboxyfluorescein (AbuRPF-K-5FAM).
# Methods: Dilutions of cIAP1-Bir3 (20 nM) were added to 2.5 nM of fluorescent peptide tracer in assay buffer (final concentrations of 20 mM HEPES, pH 7.5, 1 mM DTT, 0.005% Tween-20 and 50 mM NaCl) containing various dilutions of binding inhibitors. Samples were read by a Tecan Ultra Evolution (Tecan US Inc, Durham N.C.) after a 20-minute incubation.
# Fluorescence polarization values were plotted as a function of the antagonist concentration and the IC50 values were determined.
# T1 sequence (Q13490 250-350): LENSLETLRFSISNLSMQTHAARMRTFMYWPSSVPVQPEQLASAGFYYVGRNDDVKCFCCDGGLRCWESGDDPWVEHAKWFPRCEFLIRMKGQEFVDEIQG
row,IC50,Structure (SMILES)
1,13 nM,"CN[C@@H](C)C(=O)N[C@H](C(=O)N1CCC[C@H]1C(=O)N[C@H]1c2ccccc2C[C@H]1OCCCCCCO[C@@H]1Cc2ccccc2[C@@H]1NC(=O)[C@@H]1CCCN1C(=O)[C@@H](NC(=O)[C@H](C)NC)C1CCCCC1)C1CCCCC1 [Example 3, (S,S,2S,2′S)-N,N′-((1S,1′S,2R,2′R)-2,2′-(Hexane-1,6-diylbis(oxy))bis(2,3-dihydro-1H-indene-2,1-diyl))bis(1-((S)-2-cyclohexyl-2-((S)-2-(methylamino)propanamido)acetyl)pyrrolidine-2-carboxamide)]"
2,15 nM,"C#CCO[C@@H]1Cc2ccccc2[C@@H]1NC(=O)[C@@H]1CCCN1C(=O)[C@@H](NC(=O)[C@H](C)NC)C1CCCCC1 [Example 2, (S)-1-((S)-2-cyclohexyl-2-((S)-2-(methylamino)propanamido)acetyl)-N-((1S,2R)-2-(prop-2-ynyloxy)-2,3-dihydro-1H-inden-1-yl)pyrrolidine-2-carboxamide]"
3,42.9 nM,"CN[C@@H](C)C(=O)N[C@H](C(=O)N1CCC[C@H]1C(=O)N[C@H]1c2ccccc2C[C@@H]1OCC#CC#CCO[C@H]1Cc2ccccc2[C@@H]1NC(=O)[C@@H]1CCCN1C(=O)[C@@H](NC(=O)[C@H](C)NC)C1CCCCC1)C1CCCCC1 [Example 4, (S,S,2S,2′S)-N,N′-((1S,1′S,2S,2′S)-2,2′-(hexa-2,4-diyne-1,6-diylbis(oxy))bis(2,3-dihydro-1H-indene-2,1-diyl))bis(1-((S)-2-cyclohexyl-2-((S)-2-(methylamino)propanamido)acetyl)pyrrolidine-2-carboxamide)]"
4,12 nM,"CN[C@@H](C)C(=O)N[C@H](C(=O)N1CCC[C@H]1C(=O)N[C@H]1c2ccccc2C[C@H]1OCC#CC#CCO[C@@H]1Cc2ccccc2[C@@H]1NC(=O)[C@@H]1CCCN1C(=O)[C@@H](NC(=O)[C@H](C)NC)C1CCCCC1)C1CCCCC1 [Example 1, (S,S,2S,2′S)-N,N′-((1S,1′S,2R,2′R)-2,2′-(hexa-2,4-diyne-1,6-diylbis(oxy))bis(2,3-dihydro-1H-indene-2,1-diyl))bis(1-((S)-2-cyclohexyl-2-((S)-2-(methylamino)propanamido)acetyl)pyrrolidine-2-carboxamide)]"
